Laboratory results: PubChem BioAssay (NCI)
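48-hour exposure; five concentrations; linearly interpolated endpoints. Abbreviation: GI50, concentration required for 50% inhibition of growth. TGI denotes the concentration required for complete inhibition of growth.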

Columns and labels:
Assay in all cases: NCI-60 cell line screen, 48 h
[1] = system: 786-0 renal
[2] = system: A498 renal
[3] = system: A549 NSCLC
[4] = system: ACHN renal
[5] = system: BT-549 breast
[6] = system: CAKI-1 renal
[7] = system: CCRF-CEM leukemia
[8] = system: COLO 205 colon
[9] = system: DU-145 prostate
[10] = system: EKVX NSCLC
[11] = system: HCC-2998 colon
[12] = system: HCT-116 colon
[13] = system: HCT-15 colon
[14] = system: HL-60(TB) leukemia
[15] = system: HOP-62 NSCLC
[16] = system: HOP-92 NSCLC
[17] = system: HS 578T breast
[18] = system: HT29 colon
[19] = system: IGROV1 ovarian
[20] = system: K-562 leukemia
[21] = system: KM12 colon
[22] = system: LOX IMVI melanoma
[23] = system: M14 melanoma
[24] = system: MALME-3M melanoma
[25] = system: MCF7 breast
[26] = system: MDA-MB-231 breast
[27] = system: MDA-MB-435
[28] = system: MDA-MB-468 breast
[29] = system: MOLT-4 leukemia
[30] = system: NCI-H226 lung
[31] = system: NCI-H23 lung
[32] = system: NCI-H460 lung
[33] = system: NCI-H522 lung
[34] = system: OVCAR-3 ovarian
[35] = system: OVCAR-4 ovarian
[36] = system: OVCAR-5 ovarian
[37] = system: OVCAR-8 ovarian
[38] = system: PC-3 prostate
[39] = system: RPMI-8226 leukemia
[40] = system: RXF 393 renal
[41] = system: SF-268 CNS
[42] = system: SF-295 CNS
[43] = system: SF-539 CNS
[44] = system: SK-MEL-2 melanoma
[45] = system: SK-MEL-28 melanoma
[46] = system: SK-MEL-5 melanoma
[47] = system: SK-OV-3 ovarian
[48] = system: SN12C renal
[49] = system: SNB-19 CNS
[50] = system: SNB-75 CNS
[51] = system: SR leukemia
[52] = system: SW-620 colon
[53] = system: T-47D breast
[54] = system: TK-10 renal
[55] = system: U251 CNS
[56] = system: UACC-257 melanoma
[57] = system: UACC-62 melanoma
[58] = system: UO-31 renal

With `COc1ccc2nc(Cl)c(-c3cc(-c4ccccc4)nc(=O)[nH]3)cc2c1` the GI50 [1] was 12.4 µM, the TGI [1] was 40.2 µM and the GI50 [2] was 26.1 µM. For the same molecule, the TGI [2] was 74.3 µM, the GI50 [3] was 20.7 µM and the TGI [3] was over 100 µM. It also gave a GI50 [4] of 14.7 µM, a TGI [4] of 32.3 µM and a GI50 [5] of 11.9 µM. The TGI [5] was 28.7 µM, the GI50 [6] was 12 µM and the TGI [6] was 28.9 µM. The GI50 [7] was 2.96 µM, the TGI [7] was 34.3 µM and the GI50 [8] was 17 µM. For the same molecule, the TGI [8] was 41.5 µM, the GI50 [9] was 8.82 µM and the TGI [9] was 29.3 µM. For the same molecule, the GI50 [10] was 24 µM, the TGI [10] was over 100 µM and the GI50 [11] was 16.5 µM. It also gave a TGI [11] of 31.8 µM, a GI50 [12] of 6.67 µM and a TGI [12] of 26.2 µM. The GI50 [13] was 6.66 µM, the TGI [13] was 33.6 µM and the GI50 [14] was 5.32 µM. It also gave a TGI [14] of 33 µM, a GI50 [15] of 14.8 µM and a TGI [15] of 34.4 µM. The GI50 [16] was 6.8 µM, the TGI [16] was 42.5 µM and the GI50 [17] was 24.8 µM. The TGI [17] was over 100 µM, the GI50 [18] was 18.3 µM and the TGI [18] was 40.8 µM. For the same molecule, the GI50 [19] was 17.9 µM, the TGI [19] was 44.1 µM and the GI50 [20] was 2.98 µM. It also gave a TGI [20] of 59.2 µM, a GI50 [21] of 4.25 µM and a TGI [21] of 17.1 µM. The GI50 [22] was 3.86 µM, the TGI [22] was 33.5 µM and the GI50 [23] was 18.5 µM. The TGI [23] was 46.8 µM, the GI50 [24] was 15.9 µM and the TGI [24] was 31.9 µM. For the same molecule, the GI50 [25] was 4.22 µM, the TGI [25] was 31.6 µM and the GI50 [26] was 16.7 µM. For the same molecule, the TGI [26] was 43.7 µM, the GI50 [27] was 14.8 µM and the TGI [27] was 34.1 µM. The GI50 [28] was 11.4 µM, the TGI [28] was 33.8 µM and the GI50 [29] was 3.63 µM. The TGI [29] was 54.1 µM, the GI50 [30] was 12.7 µM and the TGI [30] was 41.7 µM. For the same molecule, the GI50 [31] was 12 µM, the TGI [31] was 32.7 µM and the GI50 [32] was 5.69 µM. It also gave a TGI [32] of 20.6 µM, a GI50 [33] of 17 µM and a TGI [33] of 42.4 µM. The GI50 [34] was 7.42 µM, the TGI [34] was 23.8 µM and the GI50 [35] was 20.4 µM. For the same molecule, the TGI [35] was 79.9 µM, the GI50 [36] was 18.2 µM and the TGI [36] was 38.1 µM. It also gave a GI50 [37] of 16.6 µM, a TGI [37] of 88.8 µM and a GI50 [38] of 14.2 µM. The TGI [38] was 56 µM, the GI50 [39] was 3.08 µM and the TGI [39] was 13.5 µM. The GI50 [40] was 13.3 µM, the TGI [40] was 33 µM and the GI50 [41] was 14.6 µM. The TGI [41] was 35 µM, the GI50 [42] was 21.3 µM and the TGI [42] was 67.2 µM. It also gave a GI50 [43] of 11.2 µM, a TGI [43] of 23.9 µM and a GI50 [44] of 18.5 µM. It also gave a TGI [44] of 40.9 µM, a GI50 [45] of 15.9 µM and a TGI [45] of 31 µM. It also gave a GI50 [46] of 16.8 µM, a TGI [46] of 31.5 µM and a GI50 [47] of 20.9 µM. For the same molecule, the TGI [47] was 51.2 µM, the GI50 [48] was 19.4 µM and the TGI [48] was 59 µM. It also gave a GI50 [49] of 10.7 µM, a TGI [49] of 26 µM and a GI50 [50] of 13.1 µM. The TGI [50] was 37.1 µM, the GI50 [51] was 1.55 µM and the TGI [51] was 5.47 µM. It also gave a GI50 [52] of 6.44 µM, a TGI [52] of 35.1 µM and a GI50 [53] of 25.8 µM. For the same molecule, the TGI [53] was over 100 µM, the GI50 [54] was 29 µM and the TGI [54] was over 100 µM. For the same molecule, the GI50 [55] was 4.45 µM, the TGI [55] was 19.9 µM and the GI50 [56] was 18.1 µM. For the same molecule, the TGI [56] was 37.6 µM, the GI50 [57] was 13.8 µM and the TGI [57] was 28.6 µM. For the same molecule, the GI50 [58] was 10.5 µM and the TGI [58] was 22.4 µM.
